Reference: ChEMBL document CHEMBL5380795, “Design, Synthesis, and Bioactivity Investigation of Cyclic Lipopeptide Antibiotics Containing Eight to Nine Amino Acids” (J Med Chem, 2023)
Values after ≈ are worked out from the molar mass of the structure shown. Bridge positions count the residues as written; N and C are the ends. Square brackets hold non-standard residues; d marks the D form. Peptide text beside a SMILES is read from it. * marks the point of attachment. X1 = CC[C@H](C)CCCCC(=O)*; Dab = NCC[C@H](N)C(=O)O

How the values were obtained:
[1] = Selectivity index, ratio of IC50 for cytotoxicity against human HK-2 cells to MIC for antibacterial activity against Escherichia coli ATCC BAA-2523; assay type: toxicity, cell-based
[2] = test system: Staphylococcus epidermidis; experiment: Antibacterial activity against methicillin resistant Staphylococcus epidermidis clinical isolate 19-6 assessed as inhibition of bacterial growth incubated for 18 to 24 hrs by broth microdilution method; assay type: functional; settings: time 18-24 hrs
[3] = test system: Staphylococcus epidermidis; experiment: Antibacterial activity against methicillin resistant Staphylococcus epidermidis clinical isolate 19-5 assessed as inhibition of bacterial growth incubated for 18 to 24 hrs by broth microdilution method; assay type: functional; settings: time 18-24 hrs
Klebsiella pneumoniae [4] = experiment: Antibacterial activity against carbapenem resistant Klebsiella pneumoniae clinical isolate 19-17 assessed as inhibition of bacterial growth incubated for 18 to 24 hrs by broth microdilution method; assay type: functional; settings: time 18-24 hrs
Escherichia coli [5] = experiment: Antibacterial activity against Escherichia coli NCTC 13353 assessed as inhibition of bacterial growth incubated for 18 to 24 hrs by broth microdilution method; assay type: functional; settings: time 18-24 hrs
Klebsiella pneumoniae [6] = experiment: Antibacterial activity against KPC producing Klebsiella pneumoniae ATCC BAA-1705 assessed as inhibition of bacterial growth incubated for 18 to 24 hrs by broth microdilution method; assay type: functional; settings: time 18-24 hrs
Pseudomonas aeruginosa [7] = experiment: Antibacterial activity against carbapenem resistant Pseudomonas aeruginosa clinical isolate 19-3 assessed as inhibition of bacterial growth incubated for 18 to 24 hrs by broth microdilution method; assay type: functional; settings: time 18-24 hrs
Staphylococcus aureus [8] = experiment: Antibacterial activity against Staphylococcus aureus ATCC 29213 assessed as inhibition of bacterial growth incubated for 18 to 24 hrs by broth microdilution method; assay type: functional; settings: time 18-24 hrs
Pseudomonas aeruginosa [9] = experiment: Antibacterial activity against carbapenem resistant Pseudomonas aeruginosa clinical isolate 17-1 assessed as inhibition of bacterial growth incubated for 18 to 24 hrs by broth microdilution method; assay type: functional; settings: time 18-24 hrs
[10] = Cytotoxicity against human HK-2 cells assessed as inhibition of cell growth incubated for 72 hrs by CCK-8 assay; assay type: toxicity, cell-based
Acinetobacter baumannii [11] = experiment: Antibacterial activity against carbapenem resistant Acinetobacter baumannii clinical isolate 19-8 assessed as inhibition of bacterial growth incubated for 18 to 24 hrs by broth microdilution method; assay type: functional; settings: time 18-24 hrs
Escherichia coli [12] = experiment: Antibacterial activity against Escherichia coli ATCC BAA-2523 assessed as inhibition of bacterial growth incubated for 18 to 24 hrs by broth microdilution method; assay type: functional; settings: time 18-24 hrs
Acinetobacter baumannii [13] = experiment: Antibacterial activity against oxacillinase-27 producing Acinetobacter baumannii NCTC 13304 assessed as inhibition of bacterial growth incubated for 18 to 24 hrs by broth microdilution method; assay type: functional; settings: time 18-24 hrs
Staphylococcus aureus [14] = experiment: Antibacterial activity against methicillin resistant Staphylococcus aureus ATCC 33591 assessed as inhibition of bacterial growth incubated for 18 to 24 hrs by broth microdilution method; assay type: functional; settings: time 18-24 hrs
Pseudomonas aeruginosa [15] = experiment: Antibacterial activity against Pseudomonas aeruginosa clinical isolate 19-1 assessed as inhibition of bacterial growth incubated for 18 to 24 hrs by broth microdilution method; assay type: functional; settings: time 18-24 hrs
Escherichia coli [16] = experiment: Antibacterial activity against Escherichia coli clinical isolate 19-2 assessed as inhibition of bacterial growth incubated for 18 to 24 hrs by broth microdilution method; assay type: functional; settings: time 18-24 hrs
Pseudomonas aeruginosa [17] = experiment: Antibacterial activity against Pseudomonas aeruginosa ATCC 27853 assessed as inhibition of bacterial growth incubated for 18 to 24 hrs by broth microdilution method; assay type: functional; settings: time 18-24 hrs
Escherichia coli [18] = experiment: Antibacterial activity against KPC producing Escherichia coli ATCC BAA-2340 assessed as inhibition of bacterial growth incubated for 18 to 24 hrs by broth microdilution method; assay type: functional; settings: time 18-24 hrs
Klebsiella pneumoniae [19] = experiment: Antibacterial activity against carbapenem resistant Klebsiella pneumoniae clinical isolate 19-15 assessed as inhibition of bacterial growth incubated for 18 to 24 hrs by broth microdilution method; assay type: functional; settings: time 18-24 hrs

| Compound | selectivity ratio [1] | MIC [2] | MIC [3] | MIC (Klebsiella pneumoniae [4]) | MIC (Escherichia coli [5]) | MIC (Klebsiella pneumoniae [6]) | MIC (Pseudomonas aeruginosa [7]) | MIC (Staphylococcus aureus [8]) | MIC (Pseudomonas aeruginosa [9]) | IC50 at 72 h [10] | MIC (Acinetobacter baumannii [11]) | MIC (Escherichia coli [12]) | MIC (Acinetobacter baumannii [13]) | MIC (Staphylococcus aureus [14]) | MIC (Pseudomonas aeruginosa [15]) | MIC (Escherichia coli [16]) | MIC (Pseudomonas aeruginosa [17]) | MIC (Escherichia coli [18]) | MIC (Klebsiella pneumoniae [19]) |
| --- | --- | --- | --- | --- | --- | --- | --- | --- | --- | --- | --- | --- | --- | --- | --- | --- | --- | --- | --- |
| CC(C)C[C@@H]1NC(=O)[C@@H](CC(C)C)NC(=O)[C@H](CCN)NC(=O)[C@@H](NC(=O)[C@@H](CCN)NC(=O)CCCCCC(C)(C)C)CCNC(=O)[C@H]([C@@H](C)O)NC(=O)[C@H](CCN)NC(=O)[C@H](CCN)NC1=O | 1.3 | > 64 µg/mL | 8 µg/mL (≈ 8.14 µM) | > 64 µg/mL | 32 µg/mL (≈ 32.6 µM) | 32 µg/mL (≈ 32.6 µM) | 8 µg/mL (≈ 8.14 µM) | > 64 µg/mL | 8 µg/mL (≈ 8.14 µM) | 40.4 µg/mL (≈ 41.1 µM) | > 64 µg/mL | 32 µg/mL (≈ 32.6 µM) | > 64 µg/mL | > 64 µg/mL | 2 µg/mL (≈ 2.04 µM) | 32 µg/mL (≈ 32.6 µM) | 2 µg/mL (≈ 2.04 µM) | 16 µg/mL (≈ 16.3 µM) | 64 µg/mL (≈ 65.2 µM) |
| CCCCCCCCCC(=O)N[C@H](CCN)C(=O)N[C@H]1CCNC(=O)[C@H]([C@@H](C)O)NC(=O)[C@H](CCN)NC(=O)[C@H](CCN)NC(=O)[C@H](CC(C)C)NC(=O)[C@H](CC(C)C)NC(=O)[C@H](CCN)NC1=O | < 0.9 | 16 µg/mL (≈ 16.3 µM) | 4 µg/mL (≈ 4.07 µM) | > 64 µg/mL | > 64 µg/mL | > 64 µg/mL | > 64 µg/mL | > 64 µg/mL | > 64 µg/mL | 58.7 µg/mL (≈ 59.8 µM) | > 64 µg/mL | > 64 µg/mL | > 64 µg/mL | > 64 µg/mL | > 64 µg/mL | > 64 µg/mL | > 64 µg/mL | 64 µg/mL (≈ 65.2 µM) | > 64 µg/mL |
| CCCCCCCCCC(=O)N[C@H](CCN)C(=O)N[C@H]1CNC(=O)[C@H]([C@@H](C)O)NC(=O)[C@H](CCN)NC(=O)[C@H](CCN)NC(=O)[C@H](CC(C)C)NC(=O)[C@@H](CC(C)C)NC(=O)[C@H](CCN)NC1=O |  | 32 µg/mL (≈ 33 µM) | 1 µg/mL (≈ 1.03 µM) | > 64 µg/mL | > 64 µg/mL | > 64 µg/mL | > 64 µg/mL | > 64 µg/mL | > 64 µg/mL | 68.6 µg/mL (≈ 70.8 µM) | > 64 µg/mL | < 64 µg/mL | > 64 µg/mL | > 64 µg/mL | > 64 µg/mL | > 64 µg/mL | > 64 µg/mL | > 64 µg/mL | > 64 µg/mL |
| CC[C@H](C)CCCCC(=O)N[C@@H](CCN)C(=O)N[C@H](C(=O)N[C@@H](CCN)C(=O)N[C@H]1CCNC(=O)[C@H]([C@@H](C)O)NC(=O)[C@H](CCN)NC(=O)[C@H](CCN)NC(=O)[C@H](CC(C)C)NC(=O)[C@@H](Cc2ccccc2)NC(=O)[C@H](CCN)NC1=O)[C@@H](C)O (X1-[Dab]T[Dab][Dab][Dab][dF]L[Dab][Dab]T; lactam 4-C) | > 932 |  |  |  |  |  |  |  |  | 55.9 µg/mL (≈ 46.4 µM) |  |  |  |  |  |  |  |  |  |
| CCCCCCCCCC(=O)N[C@H](CCN)C(=O)N[C@H]1CCNC(=O)[C@H]([C@@H](C)O)NC(=O)[C@H](CCN)NC(=O)[C@H](CCN)NC(=O)[C@H](CC(=O)O)NC(=O)[C@@H](CC(C)C)NC(=O)[C@H](CCN)NC1=O |  | > 64 µg/mL | > 64 µg/mL | > 64 µg/mL | > 64 µg/mL | > 64 µg/mL | > 64 µg/mL | > 64 µg/mL | > 64 µg/mL | > 500 µg/mL | > 64 µg/mL | > 64 µg/mL | > 64 µg/mL | > 64 µg/mL | > 64 µg/mL | > 64 µg/mL | > 64 µg/mL | > 64 µg/mL | > 64 µg/mL |
